These results are taken from patent US20250154169A1, “COMPOUNDS AND METHODS FOR MODULATING SPLICING” (REMIX THERAPEUTICS INC., priority 2021, published 2025).

The term pIC50 denotes the negative decadic logarithm of the IC50, by convention in mol/L. For orientation: AC50 means the concentration at which the activity in the assay is half-maximal.

SMILES strings stand for the structures. pIC50: −log10 of the molar value.

One test deals with HTT mRNA. The experiment in a line: Splicing RT-qPCR assay, HTT canonical (CJ) and alternative (AJ) junction mRNA. Type of test: cell-based, human. As to conditions: Homo sapiens, A673 or K562 cells, 24 hours compound treatment; for pIC50: 24 h, read-out: HTT CJ (IC50, decrease in canonical junction mRNA); for AC50: read-out: HTT AJ (AC50, increase in alternative junction mRNA). In a few lines: (§1)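 One-step RT-qPCR on cell lysates, CJ and AJ isoforms quantified; housekeeping normalization GAPDH/GUSB (K562) or PPIA (A673). Cells: A673 in DMEM/10% FBS or K562 in IMDM/10% FBS. Compounds 11-pt 3-fold, top 10 uM, 24 h, 37 °C, 5% CO2.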

A further test relates to MYB mRNA. The experiment in a line: Splicing RT-qPCR assay, MYB canonical (CJ) and alternative (AJ) junction mRNA. Type of test: cell-based, human. The note with it: Homo sapiens, 24 h, A673 or K562 cells, 24 hours compound treatment, RT-qPCR; for AC50: read-out: MYB AJ (AC50, increase in alternative junction mRNA); for pIC50: read-out: MYB CJ (IC50, decrease in canonical junction mRNA). In a few lines:
as §1
(Real-time PCR tracks product formation cycle by cycle.)

Consider `CCn1cc2c(N3CCC(C)(N)C3)ccc(C(=O)Nc3cc(F)c4nc(C)cn4c3)c2n1` (centres unmarked) [Compound 539, 4-(3-amino-3-methylpyrrolidin-1-yl)-2-ethyl-N-{8-fluoro-2-methylimidazo[1,2-a]pyridin-6-yl}indazole-7-carboxamide], for which, in the test on HTT mRNA, the pIC50 was < 5.00 and the AC50 was > 10000 nM. Further, in the test on MYB mRNA, the concentration at half-maximal activity (AC50) fell in the range of 1000 to 10000 nM and the pIC50 was 5.00 to 6.00.
For `CCn1cc2c(N3CCN[C@@H](C4CC4)C3)ccc(C(=O)Nc3cc(F)c4nc(C)cn4c3)c2n1` [Compound 541, 4-[(3S)-3-cyclopropylpiperazin-1-yl]-2-ethyl-N-{8-fluoro-2-methylimidazo[1,2-a]pyridin-6-yl}indazole-7-carboxamide], in that order: < 5.00, > 10000 nM, 100 to 1000 nM and 6.00 to 7.00.
For `CCn1cc2c(N3CCN[C@H](C4CC4)C3)ccc(C(=O)Nc3cc(F)c4nc(C)cn4c3)c2n1` [Compound 542, 4-[(3R)-3-cyclopropylpiperazin-1-yl]-2-ethyl-N-{8-fluoro-2-methylimidazo[1,2-a]pyridin-6-yl}indazole-7-carboxamide], in that order: 5.00 to 6.00, 1000 to 10000 nM, 100 to 1000 nM and 6.00 to 7.00.
For `CCn1cc2c(N3CCC(NC4CCC4)CC3)ccc(C(=O)Nc3cc(F)c4nc(C)cn4c3)c2n1` [Compound 543, 4-[4-(cyclobutylamino)piperidin-1-yl]-2-ethyl-N-{8-fluoro-2-methylimidazo[1,2-a]pyridin-6-yl}indazole-7-carboxamide], in that order: 5.00 to 6.00, 1000 to 10000 nM, < 100 nM and > 7.00.
As to `CCn1cc2c(N3CCC(C)(NC)C3)ccc(C(=O)Nc3cc(F)c4nc(C)cn4c3)c2n1` (centres unmarked) [Compound 544, 2-ethyl-N-{8-fluoro-2-methylimidazo[1,2-a]pyridin-6-yl}-4-[3-methyl-3-(methylamino)pyrrolidin-1-yl]indazole-7-carboxamide], in the test on HTT mRNA, the pIC50 is < 5.00 and the AC50 is > 10000 nM. Besides, in the test on MYB mRNA, the AC50 fell in the range of 1000 to 10000 nM and the pIC50 was 5.00 to 6.00.
For `CCn1cc2c(N(C)C3CCNCC3)ccc(C(=O)Nc3cc(F)c4nc(C)cn4c3)c2n1` [Compound 545, 2-ethyl-N-(8-fluoro-2-methylimidazo[1,2-a]pyridin-6-yl)-4-(methyl(piperidin-4-yl)amino)-2H-indazole-7-carboxamide], in the test on HTT mRNA, the pIC50 was 5.00 to 6.00 and the AC50 is > 10000 nM. Besides, in the test with MYB mRNA, the AC50 lay in the range of 100 to 1000 nM and the pIC50 is 6.00 to 7.00.
For the molecule `CCn1cc2c(N3CC[C@@](C)(NC)C3)ccc(C(=O)Nc3cc(F)c4nc(C)cn4c3)c2n1` [Compound 547, 2-ethyl-N-{8-fluoro-2-methylimidazo[1,2-a]pyridin-6-yl}-4-[(3R)-3-methyl-3-(methylamino)pyrrolidin-1-yl]indazole-7-carboxamide], the pIC50 in the test with HTT mRNA and in the test on MYB mRNA was < 5.00 in each case. For the same molecule, the AC50 in the test on HTT mRNA and in the test on MYB mRNA was > 10000 nM in each case.
For the molecule `CCn1cc2c(N3CC[C@](C)(NC)C3)ccc(C(=O)Nc3cc(F)c4nc(C)cn4c3)c2n1` [Compound 548, 2-ethyl-N-{8-fluoro-2-methylimidazo [1,2-a]pyridin-6-yl}-4-[(3S)-3-methyl-3-(methylamino)pyrrolidin-1-yl]indazole-7-carboxamide], in the test on HTT mRNA, the pIC50 is < 5.00 and the AC50 is > 10000 nM. Moreover, in the test on MYB mRNA, the AC50 was > 10000 nM and the pIC50 is < 5.00.
For `CCn1cc2c(N(C)C3C[C@H]4CC[C@@H](C3)N4)ccc(C(=O)Nc3cc(F)c4nc(C)cn4c3)c2n1` (stereo partly drawn) [Compound 550, 4-[(1R,5S)-8-azabicyclo[3.2.1]octan-3-yl(methyl)amino]-2-ethyl-N-{8-fluoro-2-methylimidazo[1,2-a]pyridin-6-yl}indazole-7-carboxamide], in the test on HTT mRNA, the pIC50 is < 5.00 and the AC50 was > 10000 nM. In the test on MYB mRNA, the half-maximal activity concentration (AC50) lay within 1000 to 10000 nM and the pIC50 was 5.00 to 6.00.
As to `Cc1cn2cc(NC(=O)c3ccc(N4CC[C@@H](N5CCOCC5)C4)c4cn(C)nc34)cc(F)c2n1` [Compound 552, N-{8-fluoro-2-methylimidazo[1,2-a]pyridin-6-yl}-2-methyl-4-[(3R)-3-(morpholin-4-yl)pyrrolidin-1-yl]indazole-7-carboxamide], in the test on HTT mRNA, the pIC50 was 6.00 to 7.00 and the AC50 is 100 to 1000 nM. For the same molecule, in the test on MYB mRNA, the AC50 was in the range of 100 to 1000 nM and the pIC50 was 6.00 to 7.00.
For `C=CCN[C@@H]1CCN(c2ccc(C(=O)Nc3cc(F)c4nc(C)cn4c3)c3nn(C)cc23)C1` [Compound 554, N-{8-fluoro-2-methylimidazo[1,2-a]pyridin-6-yl}-2-methyl-4-[(3R)-3-(prop-2-en-1-ylamino)pyrrolidin-1-yl]indazole-7-carboxamide], in the test with HTT mRNA, the pIC50 is < 5.00 and the AC50 was > 10000 nM. Besides, in the test with MYB mRNA, the AC50 is < 100 nM and the pIC50 was 6.00 to 7.00.
For `CCn1cc2c(N3CCC(NCC4(O)CC4)CC3)ccc(C(=O)Nc3cc(F)c4nc(C)cn4c3)c2n1` [Compound 576, 2-ethyl-N-{8-fluoro-2-methylimidazo[1,2-a]pyridin-6-yl}-4-(4-{[(1-hydroxycyclopropyl)methyl]amino}piperidin-1-yl) indazole-7-carboxamide], in that order: 5.00 to 6.00, > 10000 nM, 100 to 1000 nM and 6.00 to 7.00.
For `CCn1cc2c(N3CCC(NCC(C)(C)O)CC3)ccc(C(=O)Nc3cc(F)c4nc(C)cn4c3)c2n1` [Compound 577, 2-ethyl-N-{8-fluoro-2-methylimidazo[1,2-a]pyridin-6-yl}-4-{4-[(2-hydroxy-2-methylpropyl)amino]piperidin-1-yl}indazole-7-carboxamide], in that order: 6.00 to 7.00, 100 to 1000 nM, 100 to 1000 nM and 6.00 to 7.00.
The like results for `Cc1cn2cc(NC(=O)c3ccc(N4CC[C@@H](Nc5ccccc5)C4)c4cn(C)nc34)cc(F)c2n1` [Compound 579, N-{8-fluoro-2-methylimidazo[1,2-a]pyridin-6-yl}-2-methyl-4-[(3R)-3-(phenylamino)pyrrolidin-1-yl] indazole-7-carboxamide] were, in that order, < 5.00, > 10000 nM, > 10000 nM and < 5.00.
With `CCn1cc2c(N3CCC(NC4C5CNCC54)CC3)ccc(C(=O)Nc3cc(F)c4nc(C)cn4c3)c2n1` (centres unmarked) [Compound 580, 4-(4-{3-azabicyclo[3.1.0]hexan-6-ylamino}piperidin-1-yl)-2-ethyl-N-{8-fluoro-2-methylimidazo[1,2-a]pyridin-6-yl}indazole-7-carboxamide; bis(trifluoroacetic acid)], in the test with HTT mRNA, the pIC50 was < 5.00 and the AC50 was > 10000 nM. Further, in the test with MYB mRNA, the AC50 was in the range of 1000 to 10000 nM and the pIC50 was 6.00 to 7.00.
Turning to `CCn1cc2c(N3CCC(NC4C5COCC54)CC3)ccc(C(=O)Nc3cc(F)c4nc(C)cn4c3)c2n1` (centres unmarked) [Compound 581, 2-ethyl-N-{8-fluoro-2-methylimidazo[1,2-a]pyridin-6-yl}-4-(4-{3-oxabicyclo[3.1.0]hexan-6-ylamino}piperidin-1-yl) indazole-7-carboxamide], in the test with HTT mRNA, the pIC50 was 5.00 to 6.00 and the AC50 lay in the range of 1000 to 10000 nM. In addition, in the test on MYB mRNA, the AC50 was 100 to 1000 nM and the pIC50 is 6.00 to 7.00.
The like results for `CCn1cc2c(N3CCNCC3)ccc(C(=O)Nc3cc(F)c4nc(CO)oc4c3)c2n1` [Compound 582, 2-ethyl-N-[4-fluoro-2-(hydroxymethyl)-1,3-benzoxazol-6-yl]-4-(piperazin-1-yl) indazole-7-carboxamide] were, in that order, 6.00 to 7.00, 100 to 1000 nM, 100 to 1000 nM and 6.00 to 7.00.
`CCn1cc2c(N3C[C@@H](F)[C@H](NC)C3)ccc(C(=O)Nc3cc(F)c4nc(C)cn4c3)c2n1` [Compound 584, 2-ethyl-N-{8-fluoro-2-methylimidazo[1,2-a]pyridin-6-yl}-4-[(3R,4R)-3-fluoro-4-(methylamino)pyrrolidin-1-yl]indazole-7-carboxamide]: in the test with HTT mRNA, the negative logarithm of the IC50 (pIC50) was 5.00 to 6.00 and the AC50 lay in the range of 1000 to 10000 nM. Besides, in the test on MYB mRNA, the AC50 is 100 to 1000 nM and the negative-log IC50 (pIC50) is 6.00 to 7.00.
On to `CCn1cc2c(N3C[C@H](F)[C@H](NC)C3)ccc(C(=O)Nc3cc(F)c4nc(C)cn4c3)c2n1` [Compound 585, cis-2-ethyl-N-(8-fluoro-2-methylimidazo[1,2-a]pyridin-6-yl)-4-((3S,4R)-3-fluoro-4-(methylamino)pyrrolidin-1-yl)-2H-indazole-7-carboxamide bis(2,2,2-trifluoroacetate)], for which, in the test with HTT mRNA, the pIC50 was < 5.00 and the AC50 is > 10000 nM. Also, in the test with MYB mRNA, the AC50 lay within 100 to 1000 nM and the pIC50 is 6.00 to 7.00.
The like results for `Cc1cn2cc(NC(=O)c3c(F)cc(N4CC[C@@H](NC5(C#N)CC5)C4)c4cn(C)nc34)cc(F)c2n1` [Compound 587, 4-[(3R)-3-[(1-cyanocyclopropyl)amino]pyrrolidin-1-yl]-6-fluoro-N-{8-fluoro-2-methylimidazo[1,2-a]pyridin-6-yl}-2-methylindazole-7-carboxamide] were, in that order, 6.00 to 7.00, 100 to 1000 nM, 100 to 1000 nM and 6.00 to 7.00.
